Source: BindingDB's records for doi:10.1016/j.ejmech.2019.111919 (University of Auckland, 2020)

Tests used:
[1] = Inhibition of Bacillus cereus PC-phospholipase C using phosphoryl-choline as substrate by molybdenum blue dye based assay
[2] = Inhibition of Bacillus cereus phospholipase C using L-alpha-phosphatidylcholine as substrate by Lineweaver-Burk plot analysis
[3] = target: Phosphatidylcholine-specific phospholipase C (Bacillus cereus) (UniProt P09598); assay: Binding affinity to Bacillus cereus N-terminal His6-tagged full length PC-PLC 3C Protease cleavage site expressed in Escherichia coli BL21(DE3) cells using 3,3-dimethylglutaratic acid as substrate by intrinsic fluorescence assay
Sequence of Phosphatidylcholine-specific phospholipase C (Bacillus cereus) (P09598 whole entry, looked up): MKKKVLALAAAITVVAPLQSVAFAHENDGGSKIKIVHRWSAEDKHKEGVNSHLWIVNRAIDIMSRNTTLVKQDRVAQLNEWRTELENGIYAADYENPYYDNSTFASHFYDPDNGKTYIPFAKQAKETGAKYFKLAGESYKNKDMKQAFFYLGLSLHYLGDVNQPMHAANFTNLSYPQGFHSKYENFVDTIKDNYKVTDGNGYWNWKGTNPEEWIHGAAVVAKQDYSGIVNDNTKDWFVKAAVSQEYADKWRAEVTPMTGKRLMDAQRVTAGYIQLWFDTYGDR

[4] = target: Phosphatidylcholine-specific phospholipase C (Bacillus cereus) (UniProt P09598); assay: Inhibition of recombinant Bacillus cereus N-terminal His6-tagged full length PC-PLC 3C Protease cleavage site expressed in Escherichia coli BL21(DE3) cells using phosphatidylcholine as substrate by amplex red assay relative to control

Row | SMILES | IC50 [4] | also measured
1 | O=C1N(O)CCCCN1O |  | Ki [1]: 71 µM
2 | CCCCCOC(=O)CC(CSP(=O)([O-])OCC[N+](C)(C)C)C(=O)OCCCCC (stereo not drawn) |  | Ki [2]: 7 µM
3 | O=C(O)c1cc(NCc2ccccc2Cl)ccc1N1CCOCC1 | 3.6 µM | Kd [3]: 325 µM
4 | O=C(O)c1cc(NCc2cccc(Cl)c2)ccc1N1CCOCC1 | 4.9 µM | 
5 | O=C(O)c1cc(NCc2cccc(Br)c2)ccc1N1CCOCC1 | 3.69 µM | 
6 | O=C(O)C1Cc2c([nH]c3ccccc23)C(c2ccc(O)c(O)c2)N1 (stereo not drawn) | 3.1 µM | 
7 | CN(C)c1ccc(C2NC(C(=O)O)Cc3c2[nH]c2ccccc32)cc1 (stereo not drawn) | 10.9 µM | 
